Results as given in the supplement of paper PMC5579334.
± gives the standard deviation of the averaged measurements.

Columns and labels:
[1] = system: HS-PSS; assay: drug sensitivity score (DSS, CellTox-Green cytotoxicity, 72 h) (DSS (dimensionless)); higher = more cytotoxic; extreme values may be limits of the assay
How it was run: (§1)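 For 72 h at 37 °C, MPNST cell lines and primary human Schwann cells were exposed in 384-well plates to five 10-fold compound dilutions. CellTox-Green, added before seeding at a final 1:1000 dilution, gave fluorescence from DNA released by disrupted cells. Signals were scaled to vehicle and positive-control wells, cultures failing plate quality control were left out, and four-parameter logistic fits were applied. Relative IC50 and drug sensitivity score were derived from the fits, with IC50 censored at the top concentration.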

[2] = system: HSC2 (primary human Schwann cells); assay: as above
How it was run: as §1

[3] = system: ST8814; assay: as above
How it was run: as §1

[4] = system: STS26T; assay: as above
How it was run: as §1

[5] = system: HSC1 (primary human Schwann cells); assay: as above
How it was run: as §1

[6] = system: S1507-2; assay: as above
How it was run: as §1

[7] = system: HS-PSS; assay: drug sensitivity score (DSS, CellTiter-Glo viability, 72 h) (DSS (dimensionless)); higher = more sensitive; extreme values may be limits of the assay
How it was run: (§2)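 MPNST cell lines and primary human Schwann cells were seeded at 750–1000 cells per well into 384-well plates preprinted with each compound at five concentrations in 10-fold steps, then incubated 72 h at 37 °C, 5% CO2. CellTiter-Glo ATP luminescence gave viability, scaled between vehicle and positive-control wells, with duplicates averaged where present. Curves were fitted with a four-parameter logistic model. Percent inhibition refers to the top concentration, while drug sensitivity score and relative IC50, censored at the top concentration, come from these fits.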

[8] = system: HSC2 (primary human Schwann cells); assay: as above
How it was run: as §2

[9] = system: ST8814; assay: as above
How it was run: as §2

[10] = system: YST-1; assay: as above
How it was run: as §2

[11] = system: S462; assay: as above
How it was run: as §2

[12] = system: STS26T; assay: as above
How it was run: as §2

[13] = system: HS-Sch-2; assay: as above
How it was run: as §2

[14] = system: HSC1 (primary human Schwann cells); assay: as above
How it was run: as §2

[15] = system: S1507-2; assay: as above
How it was run: as §2

[16] = system: HS-PSS; assay: % inhibition of CellTiter-Glo viability at highest tested concentration (72 h), relative to DMSO and benzethonium chloride controls; higher = more inhibition
How it was run: as §2

[17] = system: HSC2 (primary human Schwann cells); assay: as above
How it was run: as §2

[18] = system: ST8814; assay: as above
How it was run: as §2

[19] = system: YST-1; assay: as above
How it was run: as §2

[20] = system: S462; assay: as above
How it was run: as §2

[21] = system: STS26T; assay: as above
How it was run: as §2

[22] = system: HS-Sch-2; assay: as above
How it was run: as §2

[23] = system: HSC1 (primary human Schwann cells); assay: as above
How it was run: as §2

[24] = system: S1507-2; assay: as above
How it was run: as §2

With CCc1cnn2c(NCc3ccc[n+]([O-])c3)cc(N3CCCC[C@H]3CCO)nc12 [Dinaciclib] (max concentration tested 1000 nM) the drug sensitivity score [1] was 5.02, the drug sensitivity score [2] was 7.57 and the drug sensitivity score [3] was 5.45. The drug sensitivity score [4] was 14.8, the drug sensitivity score [5] was 5.96 and the drug sensitivity score [6] was 2.29 ± 3.1. It also gave a drug sensitivity score [7] of 21, a drug sensitivity score [8] of 19.9 and a drug sensitivity score [9] of 15. For the same compound, the drug sensitivity score [10] was 25.2, the drug sensitivity score [11] was 24.4 ± 0.71 and the drug sensitivity score [12] was 21.6. It also gave a drug sensitivity score [13] of 25.1, a drug sensitivity score [14] of 16.9 and a drug sensitivity score [15] of 15 ± 1.9. For the same compound, the “% inhibition” value [16] was 84.2%, the “% inhibition” value [17] was 86.4% and the “% inhibition” value [18] was 80.5%. The “% inhibition” value [19] was 99.5%, the “% inhibition” value [20] was 90.8 ± 2.7% and the “% inhibition” value [21] was 92.7%. The “% inhibition” value [22] was 101%, the “% inhibition” value [23] was 83.5% and the “% inhibition” value [24] was 76.6 ± 1.6%.

For CC(=O)O[C@@]12CO[C@@H]1C[C@H](O)[C@@]1(C)C(=O)[C@H](O)C3=C(C)[C@@H](OC(=O)[C@H](O)[C@@H](NC(=O)OC(C)(C)C)c4ccccc4)C[C@@](O)([C@@H](OC(=O)c4ccccc4)[C@H]21)C3(C)C [Docetaxel] (max concentration tested 1000 nM), the drug sensitivity score [1] was 0.9, the drug sensitivity score [2] was 24.4 and the drug sensitivity score [3] was 27.1. The drug sensitivity score [4] was 36, the drug sensitivity score [5] was 17.3 and the drug sensitivity score [6] was 22 ± 1.6. The drug sensitivity score [7] was 15.2, the drug sensitivity score [8] was 22.3 and the drug sensitivity score [9] was 24.8. For the same compound, the drug sensitivity score [10] was 29.1, the drug sensitivity score [11] was 36.7 ± 1.5 and the drug sensitivity score [12] was 35.5. The drug sensitivity score [13] was 30.8, the drug sensitivity score [14] was 21.9 and the drug sensitivity score [15] was 20.5 ± 0.58. The “% inhibition” value [16] was 52.7%, the “% inhibition” value [17] was 74.4% and the “% inhibition” value [18] was 89.2%. For the same compound, the “% inhibition” value [19] was 75.9%, the “% inhibition” value [20] was 96.9 ± 1.2% and the “% inhibition” value [21] was 99.9%. For the same compound, the “% inhibition” value [22] was 96.2%, the “% inhibition” value [23] was 71.7% and the “% inhibition” value [24] was 83.195 ± 0.0062%.

Work on Cc1ccc(-n2nc(C(C)(C)C)cc2NC(=O)Nc2ccc(OCCN3CCOCC3)c3ccccc23)cc1 [Doramapimod] (max concentration tested 10000 nM) yielded a drug sensitivity score [1] of 1.28, a drug sensitivity score [2] of 0 and a drug sensitivity score [3] of 0. It also gave a drug sensitivity score [4] of 0, a drug sensitivity score [5] of 0 and a drug sensitivity score [6] of 1.81 ± 0.51. For the same compound, the drug sensitivity score [7] was 6.23, the drug sensitivity score [8] was 2.53 and the drug sensitivity score [9] was 0. For the same compound, the drug sensitivity score [10] was 10.5, the drug sensitivity score [11] was 0.326 ± 0.46 and the drug sensitivity score [12] was 0. The drug sensitivity score [13] was 3.93, the drug sensitivity score [14] was 1.15 and the drug sensitivity score [15] was 0. For the same compound, the “% inhibition” value [16] was 68.6%, the “% inhibition” value [17] was 32.9% and the “% inhibition” value [18] was -7.45%. For the same compound, the “% inhibition” value [19] was 80.8%, the “% inhibition” value [20] was 12.1 ± 6.3% and the “% inhibition” value [21] was 1.72%. The “% inhibition” value [22] was 55.8%, the “% inhibition” value [23] was 26.7% and the “% inhibition” value [24] was 0.115 ± 1.9%.

With CN1CCN(c2ccc3nc(-c4c(N)c5c(F)cccc5[nH]c4=O)[nH]c3c2)CC1 [Dovitinib] (max concentration tested 10000 nM) the drug sensitivity score [1] was 0, the drug sensitivity score [2] was 0 and the drug sensitivity score [3] was 0. The drug sensitivity score [4] was 0, the drug sensitivity score [5] was 0 and the drug sensitivity score [6] was 0. The drug sensitivity score [7] was 0, the drug sensitivity score [8] was 0.382 and the drug sensitivity score [9] was 0. It also gave a drug sensitivity score [10] of 0.32, a drug sensitivity score [11] of 0.655 ± 0.32 and a drug sensitivity score [12] of 0.0001. For the same compound, the drug sensitivity score [13] was 0.84, the drug sensitivity score [14] was 1.65 and the drug sensitivity score [15] was 3.54 ± 3.6. For the same compound, the “% inhibition” value [16] was -2.95%, the “% inhibition” value [17] was 16.2% and the “% inhibition” value [18] was -2.1%. The “% inhibition” value [19] was 17.6%, the “% inhibition” value [20] was 18.1 ± 0.51% and the “% inhibition” value [21] was 10.4%. For the same compound, the “% inhibition” value [22] was 22.3%, the “% inhibition” value [23] was 19.1% and the “% inhibition” value [24] was 21.7 ± 2.2%.

COc1cccc2c1C(=O)c1c(O)c3c(c(O)c1C2=O)C[C@@](O)(C(=O)CO)C[C@@H]3O[C@H]1C[C@H](N)[C@H](O)[C@H](C)O1 [Doxorubicin] (max concentration tested 1000 nM) was tested, and the drug sensitivity score [1] was 0.81, the drug sensitivity score [2] was 18 and the drug sensitivity score [3] was 0. It also gave a drug sensitivity score [4] of 0.331, a drug sensitivity score [5] of 0.0904 and a drug sensitivity score [6] of 0.0502 ± 0.071. It also gave a drug sensitivity score [7] of 7.71, a drug sensitivity score [8] of 11.2 and a drug sensitivity score [9] of 9.59. The drug sensitivity score [10] was 13.9, the drug sensitivity score [11] was 13.1 ± 0.35 and the drug sensitivity score [12] was 12.7. For the same compound, the drug sensitivity score [13] was 10.2, the drug sensitivity score [14] was 11.9 and the drug sensitivity score [15] was 10.6 ± 1.9. For the same compound, the “% inhibition” value [16] was 96.1%, the “% inhibition” value [17] was 99.6% and the “% inhibition” value [18] was 96.1%. The “% inhibition” value [19] was 98.3%, the “% inhibition” value [20] was 98.561 ± 0.012% and the “% inhibition” value [21] was 98.4%. The “% inhibition” value [22] was 100%, the “% inhibition” value [23] was 99.1% and the “% inhibition” value [24] was 83.5 ± 6.7%.

Nc1ccccc1NC(=O)c1ccc(CNC(=O)OCc2cccnc2)cc1 [Entinostat] (max concentration tested 10000 nM) gave a drug sensitivity score [1] of 0.63, a drug sensitivity score [2] of 0 and a drug sensitivity score [3] of 2.69. It also gave a drug sensitivity score [4] of 0.625, a drug sensitivity score [5] of 0 and a drug sensitivity score [6] of 2.98 ± 1.3. It also gave a drug sensitivity score [7] of 2.31, a drug sensitivity score [8] of 4.87 and a drug sensitivity score [9] of 4.2. It also gave a drug sensitivity score [10] of 10.3, a drug sensitivity score [11] of 9.84 ± 0.75 and a drug sensitivity score [12] of 4.35. It also gave a drug sensitivity score [13] of 4.13, a drug sensitivity score [14] of 5.09 and a drug sensitivity score [15] of 4.79 ± 0.3. For the same compound, the “% inhibition” value [16] was 52%, the “% inhibition” value [17] was 73% and the “% inhibition” value [18] was 87.7%. The “% inhibition” value [19] was 97.7%, the “% inhibition” value [20] was 105.3 ± 0.38% and the “% inhibition” value [21] was 69.3%. For the same compound, the “% inhibition” value [22] was 79.7%, the “% inhibition” value [23] was 71.2% and the “% inhibition” value [24] was 74.9 ± 7.7%.

For CNC(=O)c1ccc(N2C(=S)N(c3ccc(C#N)c(C(F)(F)F)c3)C(=O)C2(C)C)cc1F [Enzalutamide] (max concentration tested 10000 nM), the drug sensitivity score [1] was 0, the drug sensitivity score [2] was 0 and the drug sensitivity score [3] was 0. It also gave a drug sensitivity score [4] of 0, a drug sensitivity score [5] of 0 and a drug sensitivity score [6] of 2.11 ± 3. For the same compound, the drug sensitivity score [7] was 0, the drug sensitivity score [8] was 0 and the drug sensitivity score [9] was 0.0064. The drug sensitivity score [10] was 0, the drug sensitivity score [11] was 0 and the drug sensitivity score [12] was 0. For the same compound, the drug sensitivity score [13] was 0, the drug sensitivity score [14] was 0.165 and the drug sensitivity score [15] was 1.03 ± 1.4. For the same compound, the “% inhibition” value [16] was 7.35%, the “% inhibition” value [17] was -3.12% and the “% inhibition” value [18] was 11.6%. For the same compound, the “% inhibition” value [19] was 4.16%, the “% inhibition” value [20] was -3 ± 1.3% and the “% inhibition” value [21] was 3.2%. The “% inhibition” value [22] was -3.43%, the “% inhibition” value [23] was 14.3% and the “% inhibition” value [24] was 14.2 ± 18%.
